Experimental findings from patent US20220274935A1, “PHARMACEUTICAL COMPOSITION FOR PREVENTING OR TREATING BONE DISEASES” (INDUSTRY FOUNDATION OF CHONNAM NATIONAL UNIVERSITY, priority 2019, published 2022) are described below.

The subject of data set [1] is bone resorption ability of osteoclasts (BMM). As to the kind of experiment: Bone resorption assay kit (fluoresceinamine-labeled calcium phosphate plate). The class given is cell-based, mouse. The note with it: 0.5 uM, 6 days, compared to control cells not treated (Ctrl); FIG. 7. The protocol: In addition, the bone resorption ability of 35D35 was measured using a bone resorption assay kit (Cosmo Bio, CSR-BRA). Specifically, BMM was seeded on a fluoresceinamine-labeled calcium phosphate plate, followed by 35D35 treatment with various doses. After 6 days, a fluorescence intensity was measured at absorption and emission wavelengths of 485 nm and 535 nm, respectively, using a fluorescent reader. Further, a resorption pit area was calculated using Image J. As a result, it was confirmed that the bone resorption ability was reduced by about 10% in the cells treated with 0.5 uM of 35D35, as compared to the control cells not treated with the compound (Ctrl) (see FIG. 7, scale bar=200 μm, “Con”=M-CSF+RANKL treatment group, “M”=M-CSF treatment group).

The test system of data set [2] is ovariectomized mouse model (OVX). Briefly: Ovariectomized (OVX) mouse osteoporosis model, tibia micro-computed tomography. The class given is in vivo. Conditions: OVX mice, intraperitoneal once every two days, after 4 weeks, microcomputer tomography; FIGS. 11 to 14. The method, then: An ovariectomized mouse model (OVX, ovariectomized mouse) with osteoporosis due to estrogen deficiency after ovariectomy in 8-week-old female mouse were prepared. Compounds (35D35, 35D5, and 35D3), respectively, were injected intraperitoneally once every two days to the ovariectomized mouse model. After 4 weeks, the tibia of each mouse was analyzed for bone density by microcomputer tomography.
FIGS. 11 to 14 show the micro-computed tomography results (Sham: the control in which the ovaries were not removed) and graphs for analysis of the micro-computed tomography results with regard to the tibia of the mouse models (*P<0.05, **P<0.01, and ***P<0.001 vs. the control, OVX. BMD: trabecular bone mineral density).

Data set [3] relates to RANKL-induced F-actin belt formation in BMM. Briefly: F-actin ring (belt) formation ability of differentiated osteoclasts. The format is cell-based, mouse. The method, then: In order to confirm the activity of differentiated osteoclasts, F-actin ring formation ability was measured. Specifically, BMM was seeded on a 12 mm cover glass with or without compounds (35D3: 6 μM, 35D5 and 35D35: 2 μM), followed by M-CSF and LANKL treatment. After the osteoclasts were formed in the control, the osteoclasts were fixed in 4.0% paraformaldehyde for 15 minutes, and then incubated in 5% FBS and blocked for about 60 minutes. After washing with PBS, rhodamine-conjugated phalloidin (1:40) was added to each well to visualize a F-actin belt. After 20 minutes, the cells were incubated along with a DAPI (1:5000) solution for 5 minutes. After washing three times with PBS, cells were observed using a fluorescence microscope.
A F-actin size was measured using Image J.

Data set [4] relates to Ctsk protein expression in osteoclasts. Briefly: Immunoblotting with anti-Ctsk antibody. The class given is cell-based, mouse. Conditions: 35D35 1 μM compared to 35D3 6 μM; FIG. 9. The protocol:
(§1) In order to confirm the expression degree of the osteoclast-specific gene, an mRNA expression level was measured by RT-PCR in cells treated with 35D35 (1 μM) and 35D3 (6 μM) compounds, respectively. RNA was isolated from cells differentiated into osteoclasts using an RNA extraction kit, and cDNA was synthesized from 0.5 μg of RNA, which was quantified through a spectrophotometer, using a reverse transcriptase (Takara, RR037 A). Thereafter, QRT-PCR was performed using cDNA synthesized by QuantStudio 3 real-time PCR system (Applied Biosystems). After treating the cells with lysates, immunoblotting was conducted with an anti-Ctsk antibody. At this time, β-actin was used as a loading control.

The test system of another data set is preosteoclasts. Briefly: MTT assay for cytotoxicity assessment (cell viability). The format is cell-based, mouse. Conditions: MCSF 30 ng/mL, concentration of 10 uM. The protocol:
MTT Assay for Cytotoxicity Assessment
After treatment of preosteoclasts with 35D35 or 35D3 (=PPOA) (1-10 uM), cell viability was evaluated. Specifically, 1×10^4 cells per well were put into a 96-well plate, and only MCSF (30 ng/mL) and PPOA were cultured by day under the indicated concentration conditions. Thereafter, a cell viability assay reagent (DoGen, EZ-3000) was used with 1/10 of the volume of the medium for treatment, and then the cells were incubated at 37° C. for 30 minutes and observed at […]. […] That is, it was confirmed that there was no cytotoxicity.
On the technique in general: Tetrazolium assays rely on reduction of a dye to a coloured formazan, in cell work by metabolically active cells.

The subject of data set [5] is osteoclast-specific genes AcP5 (TRAP), NFATc1, DC-STAMP, ATP6v0d2, MMP9 and CTSK. Briefly: RT-PCR of osteoclast-specific gene mRNA expression. Conditions: 1 μM, compared to the control not treated (Ctrl); FIG. 8. The class given is cell-based, mouse. The method, then:
as §1

Data set [6] deals with hBMP2-induced osteoblast differentiation of precursor cells from mouse skull. As to the kind of experiment: ALP staining for analysis of osteoblast differentiation ability. The format is cell-based, C57BL/6J mouse. The note with it: hBMP2 100 ng/ml, 7 days; FIG. 10. The protocol:
After collecting cells from C57BL/6J mouse calvara at the age of 3 days, the cells were seeded on a 96-well plate in an amount of 4×10^3 cells per well, and then treated with 100 ng/ml of hBMP2 as a differentiation inducer. Simultaneously with the differentiation inducer treatment, the cells were treated with the 35D35 compound and cultured for 7 days, followed by ALP staining to assess differentiation influence. Specific experimental methods and results are as follows.
Precursor cells isolated from the mouse skull were treated with hBMP2 (Bone morphogenic protein 2, Sino biological, 10426-HNAE, 100 ng/ml) to induce differentiation into osteoblasts. Differentiated osteoblasts could be discriminated through alkaline phosphatase (ALP) staining as an osteoblast-specific protein. When the progenitor cells were treated with hBMP2, each of the 35D35 compounds was also used for treatment, followed by culturing the cells for 7 days while changing the medium every 2 to 3 days. […]
After discarding the ethanol, the remaining product was washed with HBSS, followed by adding a NBT solution (Sigma, B1911) in an amount of 100 μl per well and staining for 15 minutes. […] After ALP staining, a degree of color development was measured using Image J software, and then graphed for comparison.

The test system of data set [7] is osteoclast differentiation of monocytes isolated from the mouse bone marrow. Briefly: Osteoclast differentiation inhibitory ability through TRAP staining and assay (RANKL-induced monocytes). The format is cell-based. The protocol:
The bone marrow of a 10-week-old female mouse was isolated from the hip bone, femur and tibia, followed by culturing the same in α-MEM medium (Gibco, 12561-056, 10% fetal bovine serum, 1% penicillin/streptomycin) containing macrophage colony stimulating factor (M-CSF, PeproTech, 315-02, 30 ng/ml) for 3 days in order to isolate only monocytes. The isolated monocytes were treated with receptor activator of nuclear factor kappa B ligand (RANKL, PeproTech, 315-11, 50 ng/ml) to induce osteoclast differentiation. During RANKL treatment, each compound (35D35, 35D5, 35D3, and 35D8) was used for treatment and the cells were cultured for 3 or 5 days so as to confirm the degree of osteoclast differentiation.
1×10^4 monocytes isolated from the mouse bone marrow were put into a 96-well plate and treated with each compound (35D35, 35D5, 35D3, and 35D8) together with RANKL, thereby confirming the effects of each compound on osteoclast differentiation ability. Using the TRAP activity assay kit (Cosmo Bio, PMC-AK04F-COS), the activity of tartrate-resistant acid phosphatase (TRAP) with increased expression during osteoclast differentiation was confirmed. […] After staining, multinuclear cells formed during osteoclast differentiation were confirmed under a microscope. Further, each well was photographed and a differentiation area ratio per total area was determined using Image J software.
Further, the effects of the 35D35 compound having excellent osteoclast production inhibitory ability with respect to osteoclast differentiation period was investigated. Specifically, BMM was divided into 5 groups (Ctrl, Period I to IV), and cultured for 4 days in a culture medium containing 30 ng/mL M-CSF and 50 ng/mL RANKL. BMMs in Period I to IV groups were exposed to 1 μM 35D35 for 24 hours on different days, respectively. After 4 days, the cells of each group were fixed, followed by TRAP staining, and then, the presence of osteoclasts was confirmed.

As to `CCC(=O)N1CCN(c2ccccc2NC(=O)COc2ccccc2Cl)CC1` [35D35, 2-(2-chlorophenoxy)-N-[2-(4-propionyl-1-piperazinyl)phenyl]acetamide], the “reduction of bone resorption ability” value in data set [1] is given as “about 10%”. Also, in data set [2], the “bone density of tibia vs control (OVX)” value was “higher” and the “bone volume of tibia vs control (OVX)” value is listed as “higher”. Also, the “decrease of F-actin ring formation ability” value in data set [3] (0.5 uM, F-actin size by Image J, FIG. 6) is reported as at least 50%. Besides, the “inhibition of RANKL-induced F-actin belt formation” value in data set [3] (2 μM, FIG. 5) is reported as “excellent effects of inhibiting RANKL-induced F-actin belt formation”. Besides, the Ctsk protein expression result in data set [4] was “strongly inhibited even at a low concentration”. Also, the “cytotoxicity (cell viability, apoptosis effects)” value in the data set with preosteoclasts is “apoptosis effects were not exhibited”. In data set [5], the “amount of mRNA expression of osteoclast-specific genes AcP5 (TRAP), NFATc1, DC-STAMP, ATP6v0d2, MMP9 and CTSK” value is on record as “decreased”. The “effect on osteoblast differentiation (ALP staining intensity)” value in data set [6] is reported as “did not affect osteoblasts”. For the same compound, the “osteoclast differentiation by exposure period (TRAP staining)” value in data set [7] (1 μM for 24 hours on different days, 4 days culture with M-CSF and RANKL, exposure in initial 24 hours, FIG. 4) is “osteoclast differentiation was inhibited for the initial 24 hours”. In data set [7] (concentration of 0.5 uM, FIG. 2), the “osteoclast differentiation area ratio per total area (TRAP staining, Image J)” value is listed as “effective osteoclast differentiation inhibitory ability”. Besides, the “degree of osteoclast differentiation by TRAP staining” value in data set [7] (treated together with RANKL, compared to other derivatives, FIG. 1) is recorded as “superior osteoclast differentiation inhibitory effects compared to other derivatives”.
